Measurements reported in ChEMBL document CHEMBL1201862, “PubChem BioAssay data set” (2004).
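How tested: cells in 96-well plates exposed to compound for 48 hours at five concentrations. The concentration for 50% growth inhibition is given as GI50.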 Active and inactive are the calls of the source. No stated cut-off is given here; in the data, active = GI50 up to about 1.1 µM and inactive = higher. Peptide text beside a SMILES is read from it. * marks the point of attachment. Cbz = O=C(OCc1ccccc1)*; OBn = c1ccc(CO*)cc1

How the values were obtained:
Experiment in all cases: NCI tumour cell line growth inhibition, 48 h
A549 = test system: A549
DU-145 = test system: DU-145
IGROV-1 = test system: IGROV-1
LOX IMVI = test system: LOX IMVI
MCF7 = test system: MCF7
NCI-H226 = test system: NCI-H226
NCI-H460 = test system: NCI-H460
PC-3 = test system: PC-3
RPMI-8226 = test system: RPMI-8226
SF-268 = test system: SF-268
SF-295 = test system: SF-295
SK-MEL-5 = test system: SK-MEL-5
SN12C = test system: SN12C
SW-620 = test system: SW-620
T47D = test system: T47D
U-251 = test system: U-251
UO-31 = test system: UO-31
HCC 2998 = test system: HCC 2998
HL-60 = test system: HL-60
NCI/ADR-RES = test system: NCI/ADR-RES

Measured: GI50

N#Cc1nc(Cc2ccccc2)oc1N
inactive: A549 > 100 µM | DU-145 > 100 µM | IGROV-1 > 100 µM | LOX IMVI > 100 µM | MCF7 > 100 µM | NCI-H226 > 100 µM | NCI-H460 > 100 µM | PC-3 > 100 µM | RPMI-8226 16.9 µM | SF-268 > 100 µM | SF-295 > 100 µM | SK-MEL-5 > 100 µM | SN12C > 100 µM | SW-620 > 100 µM | T47D > 100 µM | U-251 > 100 µM | UO-31 > 100 µM

CC[C@@]1(C[C@H]2C[C@@]3(C(=O)OC)c4[nH]c5ccccc5c4CCN3C2=S)COC2(CCCCC2)O1
inactive: A549 54.6 µM | DU-145 > 100 µM | HCC 2998 15.2 µM | HL-60 4.06 µM | IGROV-1 61.7 µM | LOX IMVI 78 µM | MCF7 33.3 µM | NCI-H460 5.78 µM | NCI/ADR-RES 57 µM | PC-3 4.97 µM | SF-268 62.5 µM | SF-295 22 µM | SK-MEL-5 3.12 µM | SN12C > 100 µM | SW-620 3.13 µM | T47D 26.2 µM | U-251 3.75 µM | UO-31 7.78 µM

Cc1c(NC(=S)Nc2ccc([N+](=O)[O-])cc2)c(=O)n(-c2ccccc2)n1C
inactive: A549 > 100 µM | DU-145 > 100 µM | HCC 2998 > 100 µM | HL-60 > 100 µM | IGROV-1 > 100 µM | LOX IMVI > 100 µM | MCF7 > 100 µM | NCI-H226 > 100 µM | NCI-H460 > 100 µM | NCI/ADR-RES > 100 µM | PC-3 > 100 µM | RPMI-8226 16.6 µM | SF-268 > 100 µM | SF-295 > 100 µM | SK-MEL-5 > 100 µM | SW-620 > 100 µM | U-251 > 100 µM | UO-31 > 100 µM

CCC1C(=O)C(O)[C@H]2[C@@H]3C(O)CC4=CC(=O)CC[C@]4(C)[C@H]3CC[C@]12C (stereo partly drawn)
inactive: A549 > 50 µM | DU-145 > 50 µM | HCC 2998 > 50 µM | HL-60 > 50 µM | IGROV-1 > 50 µM | LOX IMVI > 50 µM | MCF7 > 50 µM | NCI-H460 > 50 µM | NCI/ADR-RES > 50 µM | PC-3 > 50 µM | RPMI-8226 > 50 µM | SF-268 > 50 µM | SF-295 > 50 µM | SK-MEL-5 > 50 µM | SN12C > 50 µM | SW-620 > 50 µM | T47D > 50 µM | U-251 > 50 µM | UO-31 > 50 µM

COC(=O)[C@]1(NC(=O)c2ccccc2)C[C@H]1C=O
inactive: A549 > 100 µM | DU-145 > 100 µM | HCC 2998 57.7 µM | IGROV-1 > 100 µM | LOX IMVI 98.6 µM | MCF7 > 100 µM | NCI-H226 46.7 µM | NCI-H460 15 µM | NCI/ADR-RES > 58.6 µM | PC-3 > 100 µM | RPMI-8226 > 100 µM | SF-268 > 84.5 µM | SF-295 > 78.5 µM | SK-MEL-5 > 100 µM | SN12C > 100 µM | SW-620 > 100 µM | T47D > 100 µM | U-251 > 100 µM | UO-31 > 100 µM

COc1ccc(/C=C2\N=C(SC)N(CN3CCOCC3)C2=O)cc1
inactive: A549 65.3 µM | DU-145 65.9 µM | HL-60 56.9 µM | IGROV-1 37.5 µM | LOX IMVI 37.2 µM | MCF7 16 µM | NCI-H226 29.2 µM | NCI/ADR-RES 80.9 µM | PC-3 49.2 µM | RPMI-8226 24.8 µM | SF-268 48 µM | SF-295 98.9 µM | SK-MEL-5 47.3 µM | SN12C > 100 µM | SW-620 22 µM | U-251 51.6 µM | UO-31 49.8 µM

COC(=O)CNC(=O)C(C)NC(=O)C(CC(=O)OCc1ccccc1)NC(=O)OCc1ccccc1 (stereo not drawn) (Cbz-Asp(OBn)-Ala-Gly-OMe; configuration not given here)
inactive: A549 39.5 µM | DU-145 93.5 µM | HCC 2998 32.9 µM | IGROV-1 > 100 µM | MCF7 55.7 µM | NCI-H226 36.1 µM | NCI-H460 50.7 µM | NCI/ADR-RES 67.1 µM | PC-3 24 µM | RPMI-8226 39 µM | SF-295 33.3 µM | SK-MEL-5 17 µM | SN12C 91.6 µM | SW-620 35.7 µM | T47D 21.6 µM | U-251 47 µM | UO-31 19.1 µM

O=C1c2cc([N+](=O)[O-])ccc2NC2C(O)c3ccccc3N12 (stereo not drawn)
inactive: A549 35.7 µM | DU-145 9.55 µM | HCC 2998 47.9 µM | IGROV-1 24.9 µM | LOX IMVI 43.8 µM | MCF7 17.3 µM | NCI-H226 29.2 µM | NCI-H460 26.4 µM | NCI/ADR-RES 23.5 µM | PC-3 53 µM | RPMI-8226 18.5 µM | SF-268 27.2 µM | SF-295 30.1 µM | SK-MEL-5 38 µM | SN12C 48.9 µM | T47D 14.2 µM | U-251 23.5 µM | UO-31 25.9 µM

Cc1cc(OP2(=O)NCc3ncccc3O2)ccc1Cl (stereo not drawn)
inactive: A549 > 100 µM | DU-145 > 100 µM | HCC 2998 40.6 µM | IGROV-1 > 100 µM | LOX IMVI > 100 µM | MCF7 > 100 µM | NCI-H226 > 100 µM | NCI-H460 > 100 µM | NCI/ADR-RES > 100 µM | PC-3 > 100 µM | RPMI-8226 > 100 µM | SF-295 > 100 µM | SK-MEL-5 > 100 µM | SN12C > 100 µM | SW-620 > 100 µM | T47D > 100 µM | U-251 > 100 µM | UO-31 > 100 µM

CCOC(=O)C12C3CCC1C2C(=O)C3 (stereo not drawn)
inactive: A549 > 100 µM | DU-145 > 100 µM | HCC 2998 > 100 µM | IGROV-1 > 100 µM | LOX IMVI > 100 µM | MCF7 > 100 µM | NCI-H226 > 100 µM | NCI-H460 > 100 µM | NCI/ADR-RES > 100 µM | PC-3 > 100 µM | RPMI-8226 > 100 µM | SF-268 > 100 µM | SF-295 > 100 µM | SK-MEL-5 > 100 µM | SN12C > 100 µM | SW-620 > 100 µM | U-251 > 100 µM | UO-31 > 100 µM

CCOC(=O)/C=C(/C(=O)OCC)n1ccc(=O)n(Cc2cn(COCCOC(C)=O)nn2)c1=O
inactive: A549 > 100 µM | DU-145 40.2 µM | HCC 2998 17.8 µM | IGROV-1 18 µM | LOX IMVI 20.9 µM | MCF7 15 µM | NCI-H226 33.7 µM | NCI-H460 15.6 µM | NCI/ADR-RES 20.3 µM | PC-3 35.4 µM | RPMI-8226 19.5 µM | SF-268 18.2 µM | SF-295 > 100 µM | SK-MEL-5 25.8 µM | SN12C 34.8 µM | SW-620 7.05 µM | T47D 32.1 µM | U-251 28 µM | UO-31 18 µM
